The values that follow are results of earlier work, collected in patent publication US20150072881A1 (priority 2010, published 2015).

Entries after “also recorded” stand apart in the source; their conditions may differ. Ends that are not written are not given here.

Data set [1] concerns genes (and gene products, eg., mRNA or protein). The conditions noted are these: in vivo.
The next data set deals with Pomc. The conditions noted are these: anterior pituitary cell line.
For the next data set, the system named is dopamine. Particulars: directly or indirectly.
In a further data set the test system is pronociceptin (PNOC). The conditions noted are these: hippocampus of alcoholics.
In data set [2] the test system is opiate receptor-like 1 (OPRL-1). Particulars: amygdala of alcoholics.
For the next data set, the system named is Tsc22d3. Particulars: Western blotting; drug-regulated gene.
For a further data set, the system named is Sgk1. Particulars: Western blotting; morphine-induced.
Data set [3] deals with PC12 clonal cell line from chromaffin adrenal cells.
Data set [4] concerns Leptin receptor expression in VTA.

Consider `N[C@@H]1C[C@H]1c1ccccc1` (racemic) [Tranylcypromine], for which, in data set [1], the mRNA increase result is reported as “dopamine D3 receptor mRNA in shell of the nucleus accumbens”.
Take `Nc1ncnc2c1ncn2[C@@H]1O[C@@H]2COP(O)(=S)O[C@H]2[C@H]1O` (single isomer, unassigned) [Rp-cAMPS, adenosine-3′,5′ cyclinc monophosphorothioate, Rp-isomer]: in data set [1], the “blockade of substance-induced mRNA increase” value is “CART - effect attenuated by inhibition of PKA with H89 [N-(2-”.
With `CN(C)CCC=C1c2ccccc2CCc2ccccc21` [Amitriptyline], the mRNA increase result in data set [1] is “dopamine D3 receptor mRNA in shell of the nucleus accumbens;; also recorded: D1 and D2 receptors [1]”.
For the compound `CC(N)Cc1ccccc1` (stereo not drawn) [Amphetamine], in [1], the mRNA decrease result was “Penk in CeA and anterior medial CPu [1]; also recorded: GluR1 in nucleus acumbens shell, GluR2 in core and shell [3]”; the mRNA increase result is “Penk in frontal cortex; Pdyn in AMG [1]; also recorded: mGluR8 in rat dorsal and ventral striatum, as well as cortex,; also recorded: After 3 days of withdrawl, GluR1 in PFC [3]; also recorded: Mu receptors in VTA; Pdyn in CPu and NAc [1]”.
Take `CCCCCCC(C)(C)c1ccc([C@@H]2C[C@H](O)CC[C@H]2CCCO)c(O)c1` [CP-55,940]: the mRNA increase entry in data set [1] was “Increased Penk in NAc and CPu, Tu and Pir, HPT (both PVN”.
Regarding `CNCCCN1c2ccccc2CCc2ccccc21` [Desipramine], in [1], the mRNA increase entry is “dopamine D3 receptor mRNA in shell of the nucleus accumbens”.
Regarding `COc1ccc2c(c1)[C@]13CCCC[C@@H]1[C@H](C2)N(C)CC3` [Dextromethorphan], the mRNA increase in [1] is given as 40 mg/kg ip in rats caused increase of tyrosine hydroxylase (TH).
In the case of `Cl.O=S(=O)(NCCNCC=Cc1ccc(Br)cc1)c1cccc2cnccc12` [H89, N-(2-[p-bromocinnamylamino]ethyl)-5-isoquinoline-sulfonamide hudrochloride], the “blockade of substance-induced mRNA increase” value in data set [1] was “CART - effect attenuated by inhibition of PKA with H89 [N-(2-”.
Turning to `CC(=O)Oc1ccc2c3c1O[C@H]1[C@@H](OC(C)=O)C=C[C@H]4[C@@H](C2)N(C)CC[C@@]341` [Heroin], in [1], the mRNA decrease result is “DAT in paranigral nucleus and mesolimbic division of the ventral tegmental; also recorded: area. Reduction of Nurr1expression with age in heroin users [2]; also recorded: tyrosine hydroxylase in mesolimbic dopamine neurons [3]”; the mRNA increase entry is “heroin abuse. Express higher Penk mRNA [1]; also recorded: TH and alpha synuclein in VTA PN in heroin users with no; also recorded: Penk; NAc PENK in Met/Met (control) heroin abusers [3]”.
For the compound `CN(C)CCCN1c2ccccc2CCc2ccccc21` [Imipramine], the mRNA increase result in [1] is “dopamine D3 receptor mRNA in shell of the nucleus accumbens;”.
In the case of `CC(C)C[C@H](N)C(=O)O` [Leucine], the mRNA decrease entry in data set [1] was “FTO in hypothalamus of rodents [1]”.
Regarding `CN[C@@H](C)Cc1ccccc1` [Methamphetamine], in [1], the mRNA increase result was “Pdyn in HPT [1]; also recorded: Increased TNF-alpha in normal animals [2]”.
Regarding `CCCCCCCCCC(=O)O[C@H]1CC[C@H]2[C@@H]3CCC4=CC(=O)CC[C@@H]4[C@H]3CC[C@]12C` [Nandrolone decanoate], in [1], the mRNA decrease entry was “Dopamine D(1)-receptor subtype in the caudate putamen and nucleus”; the mRNA increase entry was “Dopamine D(2) receptor at the lowest doeses in the caudate”.
As for `CC1NCCc2cc(O)c(O)cc21` (stereo not drawn) [R (+)- salsolinol], in the data set with Pomc, the mRNA decrease entry is “POMC anterior pituitary cell line [1]”. Moreover, the “cAMP level / production” value in the data set with cAMP is “whereas R(+)- SAL does not affect cAMP production [1]”.
Take `CCCCC/C=C\C/C=C\C/C=C\C/C=C\CCCC(=O)N[C@H](C)CO` [R-methanandamide]: the mRNA increase result in data set [1] is “Increased Penk in NAc and CPu, Tu and Pir, HPT (both PVN”.
Consider `C[C@@H]1NCCc2cc(O)c(O)cc21` [S(−)-salsolinol], for which the mRNA decrease entry with Pomc is “POMC anterior pituitary cell line [1]”. Also, in the data set with cAMP, the “cAMP level / production” value is “Decrease in cAMP level occurs after treatment with S(−)-SAL,”.
With `Cc1c(C(=O)NN2CCCCC2)nn(-c2ccc(Cl)cc2Cl)c1-c1ccc(Cl)cc1` [SR 141716A], the “inhibition of THC-induced MAPK/ERK activation” value in the data set on MAPK/ERK (in vivo) is “accumbens. This activation is totally inhibited by selective”.
Turning to `CCCCCc1cc(O)c2c(c1)OC(C)(C)[C@@H]1CCC(C)=C[C@@H]21` [THC, Delta-tetrahydrocannabinol], in [1], the mRNA increase result is “Increased Penk in NAc and CPu, Tu and Pir, HPT (both PVN; also recorded: BDNF in reward center (nucleus accumbens, medial prefrontal”. The “effect on dopamine release or re-uptake” value in the data set on dopamine was “enhance release or block re-uptake of dopamine”. Further, in the data set on MAPK/ERK (dorsal striatum and nucleus accumbens), the “activation (phosphorylation) of MAPK/ERK” value is “THC induces a progressive and transient activation”.
In the case of `CCCN(CCC)C1Cc2cc(OC)c(OC)cc2C1` [U99194A], in data set [1], the mRNA increase result is recorded as “c-fos (similar pattern to that produced by d-amphetamine) in”.
In the case of `CCO` [ethanol], in the data set on dopamine, the “effect on dopamine release or re-uptake” value was “enhance release or block re-uptake of dopamine”. For the same compound, in the data set with pronociceptin (PNOC), the “pronociceptin (PNOC) mRNA decrease” value was “pronociceptin (PNOC), 1.7-fold in hippocampus of alcoholics”. Besides, the “opiate receptor-like 1 (OPRL-1) mRNA decrease” value in [2] was “opiate receptor-like 1 (OPRL-1) 1.4-fold in amygdala of alcoholics [2]”.
For the compound `CN1CC[C@]23c4c5ccc(O)c4O[C@H]2[C@@H](O)C=C[C@H]3[C@H]1C5` [morphine], the “Tsc22d3 protein level (increase)” value with Tsc22d3 was “approximately 1.5 fold”. The “level of the Sgk1 protein (significant decrease)” value with Sgk1 is recorded as 0.75 fold.
Take `CN1CCCC1c1cccnc1` (stereo not drawn) [nicotine]: the mRNA decrease entry in data set [3] is “Dopamine D2 receptor and tyrosine hydroxylase in PC12 clonal cell line”; in data set [1], “POMC in MBH which was observed after 21 days of spontaneous; also recorded: withdrawl from nicotine; Pdyn in ventral shell of NAc [1]”. In addition, the mRNA increase entry in data set [1] is “Mu receptors in VTA; POMC in Arc; POMC in AL of the; also recorded: pituitary; Pdyn in CPu after nicotine withdrawl; Pdvn in HPT [1]; also recorded: c-fos in bed nucleus of stria terminalis, nucleus accumbens shell; also recorded: CREB phosphorylation when exposed to situation where; also recorded: MOR expression [4]; also recorded: c fos in limbic regions of adolescents [5]”. Moreover, the “effect on dopamine release or re-uptake” value with dopamine was “enhance release or block re-uptake of dopamine”.
In the case of `CC(N)Cc1ccc(Cl)cc1` (stereo not drawn) [para-chloroamphetamine], in data set [1], the mRNA decrease entry is “[1] repeated stress in pre-treated rats led to downregulation of BDNF mRNA” and the mRNA increase entry was “[1] repeated stress in pre-treated animals led to less”.
For the compound `CCN1CCC[C@H]1CNC(=O)c1c(O)c(Cl)cc(Cl)c1OC` [raclopride], the “blockade of substance-induced mRNA increase” value in [1] is “Cart in nucleus accumbens (effect blocked by both SCH-”.
Turning to “Leptin: Leptin administered directly to VTA”, in data set [4] (VTA), the firing rate entry is reported as “reduction” and the “intracellular JAK-STAT pathway” value was “activates”. Besides, the food intake result in [4] (direct administration to VTA) is on record as “Direct administration of leptin to VTA caused decreased food intake while”.
On to “Substance P (RPKPQQFFGLM; not fully specified (C-terminus); ends and bridges not checked; UniProt P20366 58-68, looked up)”, for which, in data set [1], the mRNA decrease entry is “D2 receptor in nucleus accumbens and frontal cortex [1]”.
